Assay [1] has as its target T1, human recombinant Monoacylglycerol Lipase (Homo sapiens, UniProt Q99685).
T1 sequence (Q99685 1-303): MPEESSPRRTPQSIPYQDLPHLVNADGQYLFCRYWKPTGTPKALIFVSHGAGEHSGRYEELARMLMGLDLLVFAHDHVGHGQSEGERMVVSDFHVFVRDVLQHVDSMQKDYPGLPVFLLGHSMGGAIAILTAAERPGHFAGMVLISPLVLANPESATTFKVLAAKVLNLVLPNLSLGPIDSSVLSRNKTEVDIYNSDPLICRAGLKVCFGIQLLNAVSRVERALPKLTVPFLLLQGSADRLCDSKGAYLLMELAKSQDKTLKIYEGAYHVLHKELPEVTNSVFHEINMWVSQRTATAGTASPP
As to the kind of experiment: MAGL inactivation (kinact/KI from enzyme progress curves, T=0 min protocol). The settings on record: from plot of Kobs vs. compound concentration, geometric mean of 2-5 determinations (b: ≥6).

In assay [2] the target is T1, human recombinant Monoacylglycerol Lipase. As to the kind of experiment: MAGL enzymatic assay (IC50; 7-HCA substrate added at T=0 min or T=30 min). Type of assay: biochemical. The settings on record: geometric mean of 2-5 determinations unless otherwise indicated.
Where [3] appears, read: MAGL (T = 30 min) IC50, substrate 7-HCA added after 30 minute incubation (T=30 min).
Where [4] appears, read: substrate 7-HCA added immediately (T=0 min), read-out: MAGL (T = 0 min) IC50.

Where two headings read alike, the source gives them in different places.

As usually defined, the IC50 is the concentration needed to halve the response being measured.

As for `N#Cc1cccc(C2CC3(CCN(C(=O)O[C@H](CO)C(F)(F)F)CC3)C2)c1` [Example 46, (2R)-1,1,1-trifluoro-3-hydroxypropan-2-yl 2-(3-cyanophenyl)-7-azaspiro[3.5]nonane-7-carboxylate], the “MAGL kinact/KI” value in assay [1] is 167000 1/s per M. Further, the values for the concentration for half-maximal inhibition (IC50) in assay [2] (setting [3]) and in assay [2] (setting [4]) were 1 nM and 4 nM, respectively.

For the compound `COc1cc(C2CC3(CCN(C(=O)O[C@H](CO)C(F)(F)F)CC3)C2)ccn1` [Example 47, (2R)-1,1,1-trifluoro-3-hydroxypropan-2-yl 2-(2-methoxypyridin-4-yl)-7-azaspiro[3.5]nonane-7-carboxylate], the “MAGL kinact/KI” value in assay [1] was 17100 1/s per M. Further, the values for the concentration for half-maximal inhibition (IC50) in assay [2] (setting [3]) and in assay [2] (setting [4]) were 2 nM and 17 nM, respectively.

Take `O=C(O[C@H](CO)C(F)(F)F)N1CCC2(CC1)CC(c1ccc(C(F)F)cn1)C2` [Example 48, (2R)-1,1,1-trifluoro-3-hydroxypropan-2-yl 2-[5-(difluoromethyl)pyridin-2-yl]-7-azaspiro[3.5]nonane-7-carboxylate]: in assay [1], the “MAGL kinact/KI” value is given as 26000 1/s per M. The values for the half-inhibitory concentration (IC50) in assay [2] (setting [3]) and in assay [2] (setting [4]) were 2 nM and 18 nM, respectively.

`O=C(O[C@H](CO)C(F)(F)F)N1CCC2(CC1)CC(n1cc(C3CC3)cn1)C2` [Example 49, (2R)-1,1,1-trifluoro-3-hydroxypropan-2-yl 2-(4-cyclopropyl-1H-pyrazol-1-yl)-7-azaspiro[3.5]nonane-7-carboxylate]: the “MAGL kinact/KI” value in assay [1] was 77400 1/s per M. For the same compound, the IC50 in assay [2] (setting [3]) worked out at 1 nM; in assay [2] (setting [4]), 13 nM.

On to `O=C(O[C@H](CO)C(F)(F)F)N1CCC2(CC1)CC(Oc1cccc(F)c1)C2` [Example 51, (2R)-1,1,1-trifluoro-3-hydroxypropan-2-yl 2-(3-fluorophenoxy)-7-azaspiro[3.5]nonane-7-carboxylate], for which the “MAGL kinact/KI” value in assay [1] is 128000 1/s per M. Besides, the IC50 was determined as 0.3 nM in assay [2] (setting [3]) and 4 nM in assay [2] (setting [4]).

As for `CN(C(=O)C1CC1)C1CC2(CCN(C(=O)O[C@H](CO)C(F)(F)F)CC2)C1` [Example 55, (2R)-1,1,1-trifluoro-3-hydroxypropan-2-yl 2-[(cyclopropylcarbonyl)(methyl)amino]-7-azaspiro[3.5]nonane-7-carboxylate], the “MAGL kinact/KI” value in assay [1] is listed as 15700 1/s per M. For the same compound, the results for the IC50 in assay [2] (setting [3]) and in assay [2] (setting [4]) were 2 nM and 30 nM, respectively.

Consider `O=C(O[C@H](CO)C(F)(F)F)N1CCC2(CC1)CC(n1cccn1)C2` [Example 56, (2R)-1,1,1-trifluoro-3-hydroxypropan-2-yl 2-(1H-pyrazol-1-yl)-7-azaspiro[3.5]nonane-7-carboxylate], for which, in assay [1], the “MAGL kinact/KI” value is on record as 1420 1/s per M. For the same compound, the IC50 in assay [2] (setting [3]) amounted to 30 nM; in assay [2] (setting [4]), 310 nM.

As to `CN([C@H]1COC2(CCN(C(=O)O[C@H](CO)C(F)(F)F)CC2)C1)S(=O)(=O)CC1CC(F)(F)C1` [Example 57, (2R)-1,1,1-trifluoro-3-hydroxypropan-2-yl (3R)-3-[{[(3,3-difluorocyclobutyl)methyl]sulfonyl}(methyl)amino]-1-oxa-8-azaspiro[4.5]decane-8-carboxylate], the “MAGL kinact/KI” value in assay [1] is given as 2770 1/s per M. For the same compound, the half-maximal inhibitory concentration (IC50) in assay [2] (setting [3]) is 13 nM; in assay [2] (setting [4]), 113 nM.

Consider `CN(C(=O)C1CC(F)(F)C1)[C@H]1COC2(CCN(C(=O)O[C@H](CO)C(F)(F)F)CC2)C1` [Example 58, (2R)-1,1,1-trifluoro-3-hydroxypropan-2-yl (3R)-3-{[(3,3-difluorocyclobutyl)carbonyl](methyl)amino}-1-oxa-8-azaspiro[4.5]decane-8-carboxylate], for which, in assay [1], the “MAGL kinact/KI” value is on record as 1810 1/s per M. The IC50 in assay [2] (setting [3]) was 21 nM; in assay [2] (setting [4]), 169 nM.

Consider `O=C(O[C@H](CO)C(F)(F)F)N1CCC2(CC1)CC(Oc1ccnc(C(F)(F)F)c1)C2` [Example 59, (2R)-1,1,1-trifluoro-3-hydroxypropan-2-yl 2-{[2-(trifluoromethyl)pyridin-4-yl]oxy}-7-azaspiro[3.5]nonane-7-carboxylate], for which the “MAGL kinact/KI” value in assay [1] was 137000 1/s per M. Moreover, the 50% inhibitory concentration (IC50) was 1 nM in assay [2] (setting [3]) and 5 nM in assay [2] (setting [4]).

Take `O=C(O[C@H](CO)C(F)(F)F)N1CCC2(CC1)CC(Oc1cccc(C(F)F)c1)C2` [Example 60, (2R)-1,1,1-trifluoro-3-hydroxypropan-2-yl 2-[3-(difluoromethyl)phenoxy]-7-azaspiro[3.5]nonane-7-carboxylate]: in assay [1], the “MAGL kinact/KI” value is recorded as 267000 1/s per M. The IC50 in assay [2] (setting [3]) is 0.3 nM; in assay [2] (setting [4]), 2 nM.

Regarding `CN(C1CC2(CCN(C(=O)O[C@H](CO)C(F)(F)F)CC2)C1)S(=O)(=O)C(C)(C)C` [Example 61, (2R)-1,1,1-trifluoro-3-hydroxypropan-2-yl 2-[(tert-butylsulfonyl)(methyl)amino]-7-azaspiro[3.5]nonane-7-carboxylate], in assay [1], the “MAGL kinact/KI” value is given as 66900 1/s per M. Moreover, the results for the IC50 in assay [2] (setting [3]) and in assay [2] (setting [4]) were 1 nM and 9 nM, respectively.

Consider `O=C(O[C@H](CO)C(F)(F)F)N1CCC2(CC1)CC(Oc1ccccc1)C2` [Example 63, (2R)-1,1,1-trifluoro-3-hydroxypropan-2-yl 2-phenoxy-7-azaspiro[3.5]nonane-7-carboxylate], for which the “MAGL kinact/KI” value in assay [1] is listed as 34100 1/s per M. Further, the IC50 in assay [2] (setting [3]) amounted to 1 nM; in assay [2] (setting [4]), 11 nM.

For the compound `O=C(O[C@H](CO)C(F)(F)F)N1CCC2(CC1)CC(n1cc(F)cn1)C2` [Example 64, (2R)-1,1,1-trifluoro-3-hydroxypropan-2-yl 2-(4-fluoro-1H-pyrazol-1-yl)-7-azaspiro[3.5]nonane-7-carboxylate], the “MAGL kinact/KI” value in assay [1] is 6260 1/s per M. The IC50 came to 9 nM in assay [2] (setting [3]) and 96 nM in assay [2] (setting [4]).

For `Cc1nn(C2CC3(CCN(C(=O)O[C@H](CO)C(F)(F)F)CC3)C2)c(C)c1C` [Example 65, (2R)-1,1,1-trifluoro-3-hydroxypropan-2-yl 2-(3,4,5-trimethyl-1H-pyrazol-1-yl)-7-azaspiro[3.5]nonane-7-carboxylate], in assay [1], the “MAGL kinact/KI” value was 10600 1/s per M. The half-maximal inhibitory concentration (IC50) turned out to be 4 nM in assay [2] (setting [3]) and 44 nM in assay [2] (setting [4]).

`O=C(O[C@H](CO)C(F)(F)F)N1CCC2(CC1)CC(n1cc(C(F)F)cn1)C2` [Example 66, (2R)-1,1,1-trifluoro-3-hydroxypropan-2-yl 2-[4-(difluoromethyl)-1H-pyrazol-1-yl]-7-azaspiro[3.5]nonane-7-carboxylate]: the “MAGL kinact/KI” value in assay [1] is 15700 1/s per M. For the same compound, the 50% inhibitory concentration (IC50) stood at 4 nM in assay [2] (setting [3]) and 40 nM in assay [2] (setting [4]).

For `O=C(O[C@H](CO)C(F)(F)F)N1CCC2(CC1)CC(c1ccc(C(F)(F)F)nc1)C2` [Example 67, (2R)-1,1,1-trifluoro-3-hydroxypropan-2-yl 2-[6-(trifluoromethyl)pyridin-3-yl]-7-azaspiro[3.5]nonane-7-carboxylate], the “MAGL kinact/KI” value in assay [1] is 60600 1/s per M. The 50% inhibitory concentration (IC50) in assay [2] (setting [3]) was found to be 2 nM; in assay [2] (setting [4]) it was 14 nM.

For `O=C(O[C@H](CO)C(F)(F)F)N1CCC2(CC1)CC(c1ccnc(C(F)(F)F)c1)C2` [Example 68, (2R)-1,1,1-trifluoro-3-hydroxypropan-2-yl 2-[2-(trifluoromethyl)pyridin-4-yl]-7-azaspiro[3.5]nonane-7-carboxylate], the “MAGL kinact/KI” value in assay [1] is given as 88300 1/s per M. Further, the IC50 in assay [2] (setting [3]) worked out at 0.9 nM; in assay [2] (setting [4]) it was 9 nM.

As for `O=C(O[C@H](CO)C(F)(F)F)N1CCC2(CC1)CC(c1cccc(C(F)(F)F)n1)C2` [Example 76, (2R)-1,1,1-trifluoro-3-hydroxypropan-2-yl 2-[6-(trifluoromethyl)pyridin-2-yl]-7-azaspiro[3.5]nonane-7-carboxylate], the “MAGL kinact/KI” value in assay [1] is given as 206000 1/s per M. For the same compound, the 50% inhibitory concentration (IC50) in assay [2] (setting [3]) came out at 0.2 nM; in assay [2] (setting [4]) it was 2 nM.

On to `O=C(O[C@H](CO)C(F)(F)F)N1CCC2(CC1)CC(c1cccc(C(F)F)n1)C2` [Example 77, (2R)-1,1,1-trifluoro-3-hydroxypropan-2-yl 2-[6-(difluoromethyl)pyridin-2-yl]-7-azaspiro[3.5]nonane-7-carboxylate], for which the “MAGL kinact/KI” value in assay [1] is recorded as 82100 1/s per M. The IC50 was 0.6 nM in assay [2] (setting [3]) and 4 nM in assay [2] (setting [4]).

As for `O=C(O[C@H](CO)C(F)(F)F)N1CCC2(CC1)CC(c1cc(C(F)F)ccn1)C2` [Example 78, (2R)-1,1,1-trifluoro-3-hydroxypropan-2-yl 2-[4-(difluoromethyl)pyridin-2-yl]-7-azaspiro[3.5]nonane-7-carboxylate], the “MAGL kinact/KI” value in assay [1] is 75400 1/s per M. The IC50 came out at 1 nM in assay [2] (setting [3]) and 9 nM in assay [2] (setting [4]).

Regarding `O=C(O[C@H](CO)C(F)(F)F)N1CCC2(CC1)CC(c1ccc(C(F)(F)F)cn1)C2` [Example 79, (2R)-1,1,1-trifluoro-3-hydroxypropan-2-yl 2-[5-(trifluoromethyl)pyridin-2-yl]-7-azaspiro[3.5]nonane-7-carboxylate], in assay [1], the “MAGL kinact/KI” value is recorded as 63500 1/s per M. The IC50 in assay [2] (setting [3]) amounted to 1 nM; in assay [2] (setting [4]) it was 8 nM.

Take `O=C(O[C@H](CO)C(F)(F)F)N1CCC2(CC1)CC(c1ccnc(C(F)F)c1)C2` [Example 80, (2R)-1,1,1-trifluoro-3-hydroxypropan-2-yl 2-[2-(difluoromethyl)pyridin-4-yl]-7-azaspiro[3.5]nonane-7-carboxylate]: in assay [1], the “MAGL kinact/KI” value is 46200 1/s per M. For the same compound, the IC50 in assay [2] (setting [3]) came out at 1 nM; in assay [2] (setting [4]), 13 nM.

For the origin of these results see patent US10626125B2, “1,1,1-trifluoro-3-hydroxypropan-2-yl carbamate derivatives as MAGL inhibitors” (PFIZER INC., priority 2017, dated 2020).
